Data on three substances can be found in US9434780B2, “Process for preparing human relaxin-2” (Relaxera Pharma GmbH & Co. KG i.G., priority 2011, dated 2016).

Where no end group is shown, it is not given here.

In one data set the test system is human THP-1 cells. Description: cAMP assay in human THP-1 cells. The data set is classed as cell-based. The note with it: FIG. 6, compared with recombinant relaxin-2. Background: Changes in cAMP serve as a functional read-out for many G protein-coupled receptors.
The next data set has as its target T1, receptor RXFP1 (Homo sapiens, UniProt Q9HBX9).
T1 construct: expressed in transfected cells; host or cells: HEK-293T
T1 sequence (Q9HBX9 1-757): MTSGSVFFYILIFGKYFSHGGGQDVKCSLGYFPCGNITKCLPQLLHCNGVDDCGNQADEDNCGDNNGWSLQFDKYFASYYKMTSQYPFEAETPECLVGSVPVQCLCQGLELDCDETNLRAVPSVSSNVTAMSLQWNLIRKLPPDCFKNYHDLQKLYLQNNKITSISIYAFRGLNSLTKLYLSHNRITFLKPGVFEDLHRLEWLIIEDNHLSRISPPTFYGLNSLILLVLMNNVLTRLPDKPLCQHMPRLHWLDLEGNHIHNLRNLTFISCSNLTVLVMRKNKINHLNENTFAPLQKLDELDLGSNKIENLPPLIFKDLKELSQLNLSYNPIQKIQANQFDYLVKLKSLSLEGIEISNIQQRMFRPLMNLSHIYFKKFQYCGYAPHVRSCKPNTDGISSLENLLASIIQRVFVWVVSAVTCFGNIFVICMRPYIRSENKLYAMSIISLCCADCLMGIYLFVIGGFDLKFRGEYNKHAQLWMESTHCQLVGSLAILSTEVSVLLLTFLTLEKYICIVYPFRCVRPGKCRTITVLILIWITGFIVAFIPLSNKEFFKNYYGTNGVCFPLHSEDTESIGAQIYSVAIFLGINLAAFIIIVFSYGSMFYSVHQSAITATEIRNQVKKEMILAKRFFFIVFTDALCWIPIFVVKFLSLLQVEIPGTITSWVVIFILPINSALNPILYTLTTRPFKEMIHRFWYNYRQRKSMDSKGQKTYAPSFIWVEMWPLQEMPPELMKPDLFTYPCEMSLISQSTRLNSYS
In words: displacement of europium-labeled relaxin-2 in HEK-293T cells expressing RXFP1. The note with it: HEK-293T cells expressing natural receptor RXFP1; compared with recombinant human relaxin-2. The data set is classed as binding.

The test system of another data set is cardiac fibroblasts. In words: cell model of myocardial hypertrophy. As to conditions: inhibition of cardiac fibroblast differentiation into myofibroblasts and of growth factor secretion; compared with recombinant. The data set is classed as cell-based. The source says:
In this model, relaxin inhibits the differentiation of cardiac fibroblasts into myofibroblasts and the secretion of growth factors by these cells (Dschietzig et al., 2006).

In a further data set the test system is cell models. In words: studies on cell models (bioassays). In kind it is cell-based. As to conditions: compared with recombinant peptide.
Data set [1] is described as follows: storage stability of lyophilized relaxin-2. In kind it is physicochemical. As to conditions: 4° C., stored for several months, compared with fresh material. The protocol: The product is lyophilized for storage and stored at −20° C. The high stability of the preparation of highly pure relaxin-2 in lyophilized form at a temperature of 4° C. has been proven by corresponding analytics, in which fresh material was compared with material stored for several months.

For the substance “AZ02: batch of relaxin-2 prepared by chemical synthesis (chain 1 ELYSALANKCCHVGCTKRSLARFC; chain 2 DSWMEEVIKLCGRELVRAQIAICGMSTWS; non-natural residues)”, in the data set on human THP-1 cells, the “activity in cAMP assay” value is on record as “comparable to that of the recombinantly prepared relaxin-2”.
On to “human relaxin-2 [synthetic human relaxin-2]”, for which the “potency in displacing europium-labeled relaxin-2” value in the data set with receptor RXFP1 is listed as “same potency as recombinant human relaxin-2”. For the same substance, the “activity in cAMP assay” value with human THP-1 cells was “equivalent bioactivities”. Moreover, the “potency in cell model of myocardial hypertrophy” value with cardiac fibroblasts is listed as “as potent as recombinant human relaxin-2”. The “effect on cell models” value in the data set on cell models was “excellent effect, comparable to that of the recombinant peptide”. For the same substance, the “stability in lyophilized form” value in data set [1] is “only minor amounts of metabolites appear”.
Consider “recombinant human relaxin-2: recombinantly prepared human relaxin-2 used as comparator (chain 1 QLYSALANKCCHVGCTKRSLARFC; chain 2 DSWMEEVIKLCGRELVRAQIAICGMSTWS; not fully specified; ends and bridges not checked) [reference compound]”, for which the “activity in cAMP assay” value with human THP-1 cells was “equivalent bioactivities”.
